Assay type in all cases: in vivo, albino rats
Experiment [1] has as its system ethanol induced gastric ulcers. The experiment in a line: Ethanol induced ulcers. As to conditions: rats, 25 mg/kg, ethanol challenge; for inhibition at 25 mg/kg: Rattus norvegicus; for Acidity Total mEg / Gastric content / pH: 4 hours after pylorus ligation. The procedure: Stress induced gastric ulceration The commercially available drug ranitidine (sigma), Omeprazole (sigma) and sucralfate (Merck) were used as reference standard in experimental models. The Tween-80 (SD fine chemicals) was used as vehicle for the administration of the drug, which is used as control. The animals were divided into 22 groups of 6 animals each. Animals were deprived of food for 48 hours but had free access to water. Group 1 received the vehicle Tween 80 (1%, 1 ml) which served as the control. Group 2 received ranitidine at a dose of 50-mg/kg-body weight, which served as standard for comparison. Group 3 to received Omeprazole at a dose of 30-mg/kg body weight, which served as standard for comparison. Group 4 received sucralfate at a dose of 400-mg/kg body weight, which served as standard for comparison. Group 5 to 22 received at a dose of 25 mg/kg body weight. Lesions were induced 1 hour after ethanol challenge animals. The stomach was ligated at the pylorus under ether anesthesia. 4 hours after pylorus ligation, the animals were sacrificed and the contents drained and centrifuges at 5000 rpm for 10 minutes. Aliquots of supernatant were used for determination of total acid by titrating with 0.01N NaOH using topfers reagent and phenolphthalein indicators. […] The animals were divided into 9 groups of 6 animals each. Animals were deprived of food for 48 hours but had free access to water. Group 1 received the vehicle Tween 80 (1%, 1 ml) which served as the control. Group 2 received ranitidine at a dose of 50-mg/kg-body weight, which served as standard for comparison. Group 3 to received Omeprazole at a dose of 30-mg/kg body weight, which served as standard for comparison. Group 4 received sucralfate at a dose of 400-mg/kg body weight, which served as standard for comparison. […] Lesions were induced 1 hour after ethanol challenge animals. The stomach was ligated at the pylorus under ether anesthesia. 4 hours after pylorus ligation, the animals were sacrificed and the contents drained and centrifuges at 5000 rpm for 10 minutes. Aliquots of supernatant were used for determination of total acid by titrating with 0.01N NaOH using topfers reagent and phenolphthalein indicators.

Experiment [2] has as its system Pylorus ligated rats. Nature of the experiment: Pylorus ligated ulcers. Particulars: 25 mg/kg, 4 hours after pylorus ligation; for inhibition at 25 mg/kg: Rattus norvegicus. The source says:
(§1) The compounds taken under study for antigastric ulcer screening by four different models were selected using experimental albino rats: • 1. Aspirin induced gastric ulceration • 2. Pylorus ligated gastric ulceration • 3. Ethanol induced gastric ulceration • 4. Stress induced gastric ulceration
(§2) The commercially available drug ranitidine (sigma), Omeprazole (sigma) and sucralfate (Merck) were used as reference standard in experimental models. The Tween-80 (SD fine chemicals) was used as vehicle for the administration of the drug, which is used as control.
The animals were divided into 19 groups of 6 animals each. Animals were deprived of food for 48 hours but had free access to water. Group 1 received the vehicle Tween 80 (1%, 1 ml) which served as the control. Group 2 received ranitidine at a dose of 50-mg/kg-body weight, which served as standard for comparison. […] After one hour of administration of drug the stomach was ligated at the pylorus under ether anesthesia. 4 hours after pylorus ligation, the animals were sacrificed and the contents drained and centrifuges at 5000 rpm for 10 minutes. Aliquots of supernatant were used for determination of total acid by titrating with 0.01N NaOH using topfers reagent and phenolphthalein indicators. 4.
The animals were divided into 7 groups of 6 animals each. Animals were deprived of food for 48 hours but had free access to water. Group 1 received the vehicle Tween 80 (1%, 1 ml) which served as the control. Group 2 received ranitidine at a dose of 50-mg/kg-body weight, which served as standard for comparison. Group 3 to 7 received at a dose of 50, 25, 15, 10 and 5 mg/kg body weight respectively. After one hour of administration of drug the stomach was ligated at the pylorus under ether anesthesia. 4 hours after pylorus ligation, the animals were sacrificed and the contents drained and centrifuges at 5000 rpm for 10 minutes. Aliquots of supernatant were used for determination of total acid by titrating with 0.01N NaOH using topfers reagent and phenolphthalein indicators.

For experiment [3], the system named is gastric ulceration in cold restraint rats. Nature of the experiment: Cold restraint (stress) induced ulcers. Further details: Ulcer index Mean(SE): scale not given here. Particulars: rats, 25 mg/kg per orally, 4° C. for 2 hours; for inhibition at 25 mg/kg: Rattus norvegicus, po.
Text: as §1, §2
(§3) The antiulcer activity of the compounds was studied. The animals were divided into 21 groups of 7 animals each. Group 1 received the vehicle Tween 80 (1%, 1 ml) which served as the control. Group 2 received ranitidine at a dose of 50-mg/kg body weight, which served as standard for comparison. Group 3 to 21 at a dose of 25 mg/kg body weight. Animals were deprived of food 48 hours before the experiment. The water was allowed for free access. Rats were administered per orally with compounds and the drug ranitidine. The water was removed 1 hour before restraint and exposed to a temperature of 4° C. for 2 hours. Two hours after stress, the animals were sacrificed. The stressed animals were opened along the greater curvature and the severity of gastric ulcer was assessed in terms of mean ulcer index. 2.
as §3, with “8” for “21”, “6” for “7”, “50, 25, 15, 10 and 5” for “25”, “weight respectively.” for “weight.”, “index.” for “index. 2.”

Experiment [4] relates to acetyl salicylic acid induced gastric lesions. Nature of the experiment: Acetyl salicylic acid (aspirin) induced gastric ulcer. Further details: Ulcer index Mean(SE): scale not given here. Particulars: rats, 25 mg/kg per orally daily for five days, aspirin 200 mg/kg; for inhibition at 25 mg/kg: Rattus norvegicus, po, 120 h. On the procedure: Stress induced gastric ulceration The commercially available drug ranitidine (sigma), Omeprazole (sigma) and sucralfate (Merck) were used as reference standard in experimental models. The Tween-80 (SD fine chemicals) was used as vehicle for the administration of the drug, which is used as control. Antiulcer activity of the compounds under taken was studied. The animals were divided into 20 groups of 6 animals each. Group 1 received the vehicle Tween 80 (1%, 1 ml) which served as the control. Group 2 received ranitidine at a dose of 50-mg/kg body weight, which served as standard for comparison. Group 3 to 20 at a dose of 25 mg/kg body weight. Rats were administered per orally with a daily dose of the compounds and the drug ranitidine for a period of five days and then fasted for 24 hours. The […] acetyl salicylic acid (aspirin) at a dose of 200 mg/kg body weight was administered as a suspension in tween-80 (1%), 30 min after the drug administration each day. All drugs were administered orally on the 6th day after the last administration of the drugs and the ulcer inducing agent aspirin, the rats were killed by cervical dislocation and their stomach were opened along the greater curvature and washed with luke warm saline and examined under a dissecting microscope. The ulcer index was calculated for each stomach. […] The antiulcer activity of the compounds was studied. The animals were divided into 19 groups of 6 animals each. Group 1 received the vehicle Tween 80 (1%, 1 ml) which served as the control. Group 2 received ranitidine at a dose of 50-mg/kg-body weight, which served as standard for comparison. […] Rats were administered per orally with a daily dose of the compounds and the drug ranitidine to respective groups for a period of five days and then fasted for 24 hours. The […] acetyl salicylic acid (aspirin) at a dose of 200 mg/kg body weight was administered as a suspension in tween-80 (1%), 30 min after the drug administration each day. All drugs were administered orally on ht […] day after the last administration of the drugs and the ulcer inducing agent aspirin, the rats were killed by cervical dislocation and their stomach were opened along the greater curvature and washed with luke warm saline and examined under a dissecting microscope.

For the compound `CN(C)CCCOc1cc(O)c2c(=O)cc(-c3ccccc3)oc2c1` [CHN-2, 7-(3-Dimethylamino-propoxy)-5-hydroxy-2-phenyl chromen-4-one], in experiment [1], the inhibition at 25 mg/kg stood at 42.5%, the “Ulcer index Mean(SE)” value is given as 38.33 (±3.07), the “Acidity Total mEg” value is 28.10 (±0.48) mEg and the Gastric content was 3.2 (±0.42). The pH in experiment [1] is 5.14 (±0.36). In addition, in experiment [2], the “Acidity Total mEg” value is 37.18 (±4.20) m Eg, the Gastric content was 1.80 (±0.46), the “Ulcer index Mean(SE)” value is listed as 20.83 (±2.00) and the pH was 4.25 (±0.09). This compound returned an inhibition at 25 mg/kg in experiment [2] of 58.4%. In experiment [3], the inhibition at 25 mg/kg is 56.1% and the “Ulcer index Mean(SE)” value turned out to be 17.85. For the same compound, in experiment [4], testing at 25 mg/kg gave an inhibition of 55.7% and the “Ulcer index Mean(SE)” value was determined as 20.00.

As to `O=c1cc(-c2ccccc2)oc2cc(OCCCN3CCCCC3)cc(O)c12` [CPP-2, 5-Hydroxy-2-phenyl-7-(3-piperidin-1-yl-propoxy)-chromen-4-one], in experiment [1], at 25 mg/kg the inhibition was 36.2%, the “Ulcer index Mean(SE)” value is recorded as 28.83 (±2.71), the “Acidity Total mEg” value is given as 44.60 (±4.12) mEg and the Gastric content is on record as 3.2 (±0.62). The pH in experiment [1] is 3.33 (±0.16). In addition, in experiment [2], the “Acidity Total mEg” value was 29.06 (±2.20) m Eg, the Gastric content is recorded as 2.60 (±0.24), the “Ulcer index Mean(SE)” value is 15.80 (±2.71) and the pH is reported as 3.25 (±0.11). The inhibition at 25 mg/kg in experiment [2] was 68.5%. Moreover, in experiment [3], the inhibition at 25 mg/kg was determined as 61.4% and the “Ulcer index Mean(SE)” value came to 15.71. For the same compound, in experiment [4], the inhibition at 25 mg/kg amounted to 66.8% and the “Ulcer index Mean(SE)” value amounted to 14.99.

For the compound `O=c1cc(-c2ccccc2)oc2cc(O)cc(O)c12` [Chrysin, 5,7-dihydroxy-2-phenyl-chromen-4-one], in experiment [1], the inhibition at 25 mg/kg amounted to 9.01%, the “Ulcer index Mean(SE)” value is listed as 60.66 (±2.88), the “Acidity Total mEg” value was 48.00 (±2.20) mEg and the Gastric content is 4.20 (±0.02). Moreover, the pH in experiment [1] was 3.20 (±0.40). Moreover, in experiment [2], the “Acidity Total mEg” value is 56.00 (±0.82) m Eg, the Gastric content is reported as 1.85 (±0.82), the “Ulcer index Mean(SE)” value is given as 37.21 (±0.26) and the pH was 4.00 (±0.40). The same compound came in with an inhibition at 25 mg/kg in experiment [2] of 25.7%. In addition, in experiment [3], testing at 25 mg/kg gave an inhibition of 42.7% and the “Ulcer index Mean(SE)” value was 23.03. For the same compound, in experiment [4], at 25 mg/kg the inhibition was 46.7% and the “Ulcer index Mean(SE)” value is 24.06.

For `COc1cc(O)c2c(=O)cc(-c3ccccc3)oc2c1` [Methoxy chrysin, 5-hydroxy-7-methoxy-2-phenyl-chromen-4-one], in experiment [1], 25 mg/kg produced 15% inhibition, the “Ulcer index Mean(SE)” value was 46.66 (±1.66), the “Acidity Total mEg” value is recorded as 49.20 (±4.12) mEg and the Gastric content is 3.9 (±0.40). For the same compound, the pH in experiment [1] is listed as 2.91 (±0.15). Moreover, in experiment [2], the “Acidity Total mEg” value is listed as 47.20 (±2.40) m Eg, the Gastric content was 2.20 (±0.44), the “Ulcer index Mean(SE)” value is on record as 48.80 (±3.07) and the pH is on record as 3.20 (±0.25). Besides, the inhibition at 25 mg/kg in experiment [2] was 2.62%. Besides, in experiment [3], the inhibition at 25 mg/kg was 8.77% and the “Ulcer index Mean(SE)” value was 27.14. Also, in experiment [4], the inhibition at 25 mg/kg amounted to 11.3% and the “Ulcer index Mean(SE)” value was 40.00.

Consider `CN1CCN(CCCOc2cc(O)c3c(=O)cc(-c4ccccc4)oc3c2)CC1` [NMC-2, 5-Hydroxy-7-[3-(4-methyl-piperzin-1-yl]-propoxy)-2-phenyl hromen-4-one], for which, in experiment [1], the Inhibition % worked out at 57.50%, the “Ulcer index Mean(SE)” value is 28.33 (±3.33), the “Acidity Total mEg” value was 30.26 (±0.42) mEg and the Gastric content was 4.8 (±0.06). Further, the pH in experiment [1] is listed as 4.75 (±0.28). In experiment [2], the “Acidity Total mEg” value is 36.26 (±2.80) m Eg, the Gastric content is listed as 1.90 (±0.62), the Inhibition % was found to be 43.47% and the “Ulcer index Mean(SE)” value is 28.33 (±0.10). Also, in experiment [2], the pH is given as 4.25 (±0.14). For the same compound, in experiment [3], the Inhibition % was 59.67% and the “Ulcer index Mean(SE)” value worked out at 16.42. In addition, in experiment [4], the Inhibition % is reported as 48.30% and the “Ulcer index Mean(SE)” value is listed as 23.33.

The inhibition is how much of the control response was suppressed.

Source of the values: US7855200B2, “Method for treatment of gastric ulcers and ulcers induced by aspirin” (Council of Scientific and Industrial Research, priority 2006, dated 2010).
